Measured values reported in the NIST ThermoML archive (doi:10.1016/j.tca.2014.05.028).
± gives the expanded uncertainty stated by the source.

Assay: xn = mol fraction of the nth substance listed
Details: 101 kPa, Liquid; for viscosity: Falling or rolling sphere viscometry; for mass density: Vibrating tube method

## CCCC[N+]1(C)CCCC1.[Br-] [1-butyl-1-methylpyrrolidinium bromide] + O
298.15 K, x1 = 0.0265
  viscosity: 1.64 ± 0.099 mPa·s
  mass density: 1049.2 ± 0.4 kg/m3
298.15 K, x1 = 0.0561
  viscosity: 2.906 ± 0.18 mPa·s
  mass density: 1093.18 ± 0.33 kg/m3
298.15 K, x1 = 0.0871
  viscosity: 4.9 ± 0.3 mPa·s
  mass density: 1125.96 ± 0.29 kg/m3
298.15 K, x1 = 0.1283
  viscosity: 8.897 ± 0.54 mPa·s
  mass density: 1156.08 ± 0.28 kg/m3
298.15 K, x1 = 0.1645
  viscosity: 13.84 ± 0.84 mPa·s
  mass density: 1174.63 ± 0.29 kg/m3
298.15 K, x1 = 0.2074
  viscosity: 22.21 ± 1.4 mPa·s
  mass density: 1190.42 ± 0.33 kg/m3
298.15 K, x1 = 0.2525
  viscosity: 36.28 ± 2.2 mPa·s
  mass density: 1202.66 ± 0.38 kg/m3
298.15 K, x1 = 0.28
  viscosity: 44.98 ± 2.7 mPa·s
  mass density: 1208.32 ± 0.41 kg/m3
298.15 K, x1 = 0.3012
  viscosity: 54.7 ± 3.3 mPa·s
  mass density: 1212.16 ± 0.44 kg/m3
298.15 K, x1 = 0.3254
  viscosity: 67.64 ± 4.1 mPa·s
  mass density: 1215.99 ± 0.48 kg/m3
298.15 K, x1 = 1
  mass density: 1221.19 ± 2.9 kg/m3
303.15 K, x1 = 0.0265
  viscosity: 1.444 ± 0.087 mPa·s
  mass density: 1047.05 ± 0.4 kg/m3
303.15 K, x1 = 0.0561
  viscosity: 2.5 ± 0.15 mPa·s
  mass density: 1090.36 ± 0.33 kg/m3
303.15 K, x1 = 0.0871
  viscosity: 4.146 ± 0.25 mPa·s
  mass density: 1122.7 ± 0.29 kg/m3
303.15 K, x1 = 0.1283
  viscosity: 7.398 ± 0.45 mPa·s
  mass density: 1152.59 ± 0.28 kg/m3
303.15 K, x1 = 0.1645
  viscosity: 11.27 ± 0.68 mPa·s
  mass density: 1171.08 ± 0.29 kg/m3
303.15 K, x1 = 0.2074
  viscosity: 17.69 ± 1.1 mPa·s
  mass density: 1186.89 ± 0.33 kg/m3
303.15 K, x1 = 0.2525
  viscosity: 27.6 ± 1.7 mPa·s
  mass density: 1199.19 ± 0.37 kg/m3
303.15 K, x1 = 0.28
  viscosity: 34.67 ± 2.1 mPa·s
  mass density: 1204.89 ± 0.41 kg/m3
303.15 K, x1 = 0.3012
  viscosity: 41.65 ± 2.5 mPa·s
  mass density: 1208.76 ± 0.44 kg/m3
303.15 K, x1 = 0.3254
  viscosity: 51.14 ± 3.1 mPa·s
  mass density: 1212.62 ± 0.48 kg/m3
303.15 K, x1 = 1
  mass density: 1217.27 ± 2.9 kg/m3
308.15 K, x1 = 0.0265
  viscosity: 1.24 ± 0.075 mPa·s
  mass density: 1044.76 ± 0.39 kg/m3
308.15 K, x1 = 0.0561
  viscosity: 2.11 ± 0.13 mPa·s
  mass density: 1087.45 ± 0.33 kg/m3
308.15 K, x1 = 0.0871
  viscosity: 3.445 ± 0.21 mPa·s
  mass density: 1119.39 ± 0.29 kg/m3
308.15 K, x1 = 0.1283
  viscosity: 6.041 ± 0.37 mPa·s
  mass density: 1149.06 ± 0.28 kg/m3
308.15 K, x1 = 0.1645
  viscosity: 9.049 ± 0.55 mPa·s
  mass density: 1167.5 ± 0.29 kg/m3
308.15 K, x1 = 0.2074
  viscosity: 13.87 ± 0.84 mPa·s
  mass density: 1183.35 ± 0.32 kg/m3
308.15 K, x1 = 0.2525
  viscosity: 21.22 ± 1.3 mPa·s
  mass density: 1195.71 ± 0.37 kg/m3
308.15 K, x1 = 0.28
  viscosity: 26.45 ± 1.6 mPa·s
  mass density: 1201.45 ± 0.41 kg/m3
308.15 K, x1 = 0.3012
  viscosity: 31.5 ± 1.9 mPa·s
  mass density: 1205.35 ± 0.44 kg/m3
308.15 K, x1 = 0.3254
  viscosity: 38.4 ± 2.3 mPa·s
  mass density: 1209.25 ± 0.47 kg/m3
308.15 K, x1 = 1
  mass density: 1213.38 ± 2.8 kg/m3
313.15 K, x1 = 0.0265
  viscosity: 1.099 ± 0.067 mPa·s
  mass density: 1042.32 ± 0.39 kg/m3
313.15 K, x1 = 0.0561
  viscosity: 1.833 ± 0.11 mPa·s
  mass density: 1084.45 ± 0.33 kg/m3
313.15 K, x1 = 0.0871
  viscosity: 2.945 ± 0.18 mPa·s
  mass density: 1116.03 ± 0.28 kg/m3
313.15 K, x1 = 0.1283
  viscosity: 5.106 ± 0.31 mPa·s
  mass density: 1145.49 ± 0.28 kg/m3
313.15 K, x1 = 0.1645
  viscosity: 7.53 ± 0.46 mPa·s
  mass density: 1163.9 ± 0.29 kg/m3
313.15 K, x1 = 0.2074
  viscosity: 11.35 ± 0.69 mPa·s
  mass density: 1179.78 ± 0.32 kg/m3
313.15 K, x1 = 0.2525
  viscosity: 17.02 ± 1 mPa·s
  mass density: 1192.21 ± 0.37 kg/m3
313.15 K, x1 = 0.28
  viscosity: 20.97 ± 1.3 mPa·s
  mass density: 1198 ± 0.4 kg/m3
313.15 K, x1 = 0.3012
  viscosity: 24.8 ± 1.5 mPa·s
  mass density: 1201.93 ± 0.43 kg/m3
313.15 K, x1 = 0.3254
  viscosity: 30.02 ± 1.8 mPa·s
  mass density: 1205.87 ± 0.47 kg/m3
313.15 K, x1 = 1
  mass density: 1209.51 ± 2.8 kg/m3
318.15 K, x1 = 0.0265
  viscosity: 0.987 ± 0.06 mPa·s
  mass density: 1039.75 ± 0.38 kg/m3
318.15 K, x1 = 0.0561
  viscosity: 1.621 ± 0.098 mPa·s
  mass density: 1081.37 ± 0.32 kg/m3
318.15 K, x1 = 0.0871
  viscosity: 2.579 ± 0.16 mPa·s
  mass density: 1112.61 ± 0.28 kg/m3
318.15 K, x1 = 0.1283
  viscosity: 4.399 ± 0.27 mPa·s
  mass density: 1141.9 ± 0.28 kg/m3
318.15 K, x1 = 0.1645
  viscosity: 6.4 ± 0.39 mPa·s
  mass density: 1160.28 ± 0.29 kg/m3
318.15 K, x1 = 0.2074
  viscosity: 9.501 ± 0.58 mPa·s
  mass density: 1176.2 ± 0.32 kg/m3
318.15 K, x1 = 0.2525
  viscosity: 14.03 ± 0.85 mPa·s
  mass density: 1188.7 ± 0.37 kg/m3
318.15 K, x1 = 0.28
  viscosity: 17.12 ± 1 mPa·s
  mass density: 1194.53 ± 0.4 kg/m3
318.15 K, x1 = 0.3012
  viscosity: 20.1 ± 1.2 mPa·s
  mass density: 1198.5 ± 0.43 kg/m3
318.15 K, x1 = 0.3254
  viscosity: 24.1 ± 1.5 mPa·s
  mass density: 1202.48 ± 0.47 kg/m3
318.15 K, x1 = 1
  mass density: 1205.66 ± 2.8 kg/m3
